Blank lines part the entries; values can stand above or below the molecule they belong to.
Assays:
IEC-6 [1] = test: Inhibition of apoptosis in rat IEC-6 cells assessed as decrease in CPT-induced DNA fragmentation relative to control; type: functional
Homo sapiens [2] = test: Immunosuppressive activity in human assessed as decrease in peripheral blood lymphocyte count at 30 mg/kg, po bid relative to control; type: functional; design: scale not given: the % may be the effect or the level left
Mus musculus [3] = test: Immunosuppressive activity in ip dosed C57BL6 mouse assessed as decrease in B220+ B lymphocyte count after 5 hrs by FACS analysis; type: functional
Mus musculus [4] = test: Immunosuppressive activity in C57BL6 mouse assessed as decrease in CD8+ T lymphocyte count at 10 mg/kg, ip after 5 hrs by FACS analysis relative to control; type: functional; design: scale not given: the % may be the effect or the level left
Homo sapiens [5] = species on record: Homo sapiens; test: Selectivity for S1P1 (unknown origin) over S1P5 (unknown origin)
Mus musculus [6] = test: Immunosuppressive activity in ip dosed C57BL6 mouse assessed as decrease in CD8+ T lymphocyte count after 5 hrs by FACS analysis; type: functional
Mus musculus [7] = test: Immunosuppressive activity in ip dosed C57BL6 mouse assessed as decrease in CD4+ T lymphocyte count after 5 hrs by FACS analysis; type: functional
Mus musculus [8] = test: Immunosuppressive activity in C57BL6 mouse assessed as decrease in B220+ B lymphocyte count at 10 mg/kg, ip after 5 hrs by FACS analysis relative to control; type: functional; design: scale not given: the % may be the effect or the level left
Mus musculus [9] = test: Immunosuppressive activity in C57BL6 mouse assessed as decrease in CD4+ T lymphocyte count at 10 mg/kg, ip after 5 hrs by FACS analysis relative to control; type: functional; design: scale not given: the % may be the effect or the level left
[10] = Half life in human at 0.5 mg, po administered as single dose measured on day 14 by LC-MS/MS analysis; type: ADME, organism-based; settings: in vivo
IEC-6 [11] = test: Inhibition of apoptosis in rat IEC-6 cells assessed as decrease in CPT-induced DNA fragmentation; type: functional, cell-based
Homo sapiens [12] = test: Immunosuppressive activity in RRMS patient assessed as decrease in peripheral blood lymphocytes at 20 to 40 mg, po administered as daily dose measured after 8 days relative to control; design: scale not given: the % may be the effect or the level left
[13] = target: T1, Sphingosine 1-phosphate receptor 1 (Homo sapiens, UniProt P21453); test: Activation of human recombinant S1P1 expressed in CHO cell membranes after 120 mins by GTP-gamma-35S-binding assay
[14] = target: T1, Sphingosine 1-phosphate receptor 1; test: Modulation of S1P1 receptor internalization in HCtAEC assessed as S1P1 expression at 100 nM after 1 hr by FACS analysis relative to control
[15] = target: T1, Sphingosine 1-phosphate receptor 1; test: Modulation of S1P1 receptor internalization in HCtAEC assessed as S1P1 expression at 1000 nM after 1 hr by FACS analysis relative to control
Homo sapiens [16] = test: Immunosuppressive activity in po dosed human assessed as decrease in peripheral blood lymphocyte count measured after 21 days of continuous treatment; type: functional; settings: 504 h
Homo sapiens [17] = test: Immunosuppressive activity in po dosed human assessed as decrease in peripheral blood lymphocyte count measured after 24 hrs; type: functional
Homo sapiens [18] = test: Immunosuppressive activity in human assessed as decrease in peripheral blood lymphocyte count at 0.1 mg/kg, po qd relative to control; type: functional; design: scale not given: the % may be the effect or the level left
Homo sapiens [19] = species on record: Homo sapiens; test: Immunosuppressive activity in human assessed as decrease in peripheral blood lymphocytes at 1 mg measured over 2 days relative to control; type: functional; design: scale not given: the % may be the effect or the level left
[20] = Half life in human; type: ADME
Homo sapiens [21] = test: Decrease in CD4+ T lymphocytes in human at 10 mg dosed daily for 28 days measured within 4 to 6 hrs post dose relative to control; type: functional; design: scale not given: the % may be the effect or the level left
Homo sapiens [22] = test: Decrease in naive T cells in human at 10 mg dosed daily for 28 days measured within 4 to 6 hrs post dose relative to control; type: functional; design: scale not given: the % may be the effect or the level left
Homo sapiens [23] = test: In vivo modulatory activity at S1P1 receptor in SPMS patient assessed as reduction in newly enlarge T2 lesion at 1.25 to 2 mg, po administered as daily dose relative to control; type: functional; design: scale not given: the % may be the effect or the level left
[24] = Half life in human plasma; type: ADME, cell-free
Homo sapiens [25] = test: Decrease in B lymphocytes in human at 10 mg dosed daily for 28 days measured within 4 to 6 hrs post dose relative to control; type: functional; design: scale not given: the % may be the effect or the level left

T1 sequence (P21453 whole entry): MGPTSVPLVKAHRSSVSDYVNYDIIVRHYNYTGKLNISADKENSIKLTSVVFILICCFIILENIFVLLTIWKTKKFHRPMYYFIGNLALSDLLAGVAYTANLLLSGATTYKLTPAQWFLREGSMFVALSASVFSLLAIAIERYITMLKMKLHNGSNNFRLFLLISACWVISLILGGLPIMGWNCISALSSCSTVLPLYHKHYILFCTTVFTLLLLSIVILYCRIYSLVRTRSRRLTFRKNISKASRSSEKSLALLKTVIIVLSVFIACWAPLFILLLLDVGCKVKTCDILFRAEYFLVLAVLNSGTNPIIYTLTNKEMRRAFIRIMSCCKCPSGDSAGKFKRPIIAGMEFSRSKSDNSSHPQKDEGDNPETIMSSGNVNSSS

half-life [10]: 81.9 to 89 h
Structure (SMILES): CCCc1ccc(COc2ccc3c(c2)CCC(CN2CC(C(=O)O)C2)=C3C)c(OC)c1

EC50 (IEC-6 [11]): 75 nM
Structure (SMILES): CCCCCCCCc1ccc(CC[C@@](N)(CO)CCP(=O)(O)O)cc1
inhibition (INH) (IEC-6 [1]): 50%

EC50 [13]: 1.2 nM
Structure (SMILES): O=C(O)CCNCc1ccc2sc(-c3ccc(-c4ccccc4)c(C(F)(F)F)c3)cc2c1

half-life [20]: 168 h
Structure (SMILES): CCCCCCCCc1ccc(CCC(N)(CO)CO)cc1 [FINGOLIMOD]
Activity (Homo sapiens [18]): 80 - 86% | Activity (Homo sapiens [19]): 38% | ED50 (Homo sapiens [16]): 0.02 mg/kg | ED50 (Homo sapiens [17]): 0.041 mg/kg

half-life [24]: 56.4 to 216 h
Structure (SMILES): CCc1cc(/C(C)=N/OCc2ccc(C3CCCCC3)c(C(F)(F)F)c2)ccc1CN1CC(C(=O)O)C1 [SIPONIMOD]
Activity (Homo sapiens [21]): 88% | Activity (Homo sapiens [22]): 88% | Activity (Homo sapiens [23]): <=80% | Activity (Homo sapiens [25]): 88%

Second part, the molecule before the results:

Structure (SMILES): CCCCCCCCc1ccc(CC[C@](N)(/C=C/P(=O)(O)O)CO)cc1
inhibition (INH) (IEC-6 [1]): 21%

Structure (SMILES): Cc1cc([C@@H](C)Nc2cccc(-c3cc(C)c(C(=O)N[C@@H](C)C(=O)O)c(C)c3)c2)ccc1Cl
Activity (Homo sapiens [2]): 75 - 85%

Structure (SMILES): CCOc1ccc(-c2nc(-c3cccc4c3CCC4NCCO)no2)cc1OCC (centres undefined)
ED50 (Mus musculus [3]): 1 mg/kg | Activity (Mus musculus [4]): 84% | Selectivity Index (Homo sapiens [5]): 10000 | ED50 (Mus musculus [6]): 2 mg/kg | ED50 (Mus musculus [7]): 0.5 mg/kg | Activity (Mus musculus [8]): 63% | Activity (Mus musculus [9]): 83%

Structure (SMILES): CCC/N=C1/S/C(=C\c2ccc(OC[C@@H](O)CO)c(Cl)c2)C(=O)N1c1ccccc1C
Activity (Homo sapiens [12]): 62%

Structure (SMILES): C[C@H](Oc1ccc(-c2nc(-c3ccc4[nH]cnc4c3)no2)cc1C(F)(F)F)C(F)(F)F [ASP-4058]
Activity [14]: 86% | Activity [15]: 23% | ED50 (Homo sapiens [16]): 0.023 mg/kg | ED50 (Homo sapiens [17]): 0.1 mg/kg

Structure (SMILES): CC(C)Oc1ccc(-c2nc(-c3cccc4c3CC[C@@H]4NCCO)no2)cc1C#N [OZANIMOD]
half-life [20]: 19 h
